Test [1] concerns the target T1, sweet taste receptor T1R2/3 (Mus musculus, UniProt Q925D8+Q925I4).
T1 construct: from tissue; host or cells: living mouse: duodenal lumen perfused, cervical vagus nerve recorded
T1 sequence (Q925I4 20-843): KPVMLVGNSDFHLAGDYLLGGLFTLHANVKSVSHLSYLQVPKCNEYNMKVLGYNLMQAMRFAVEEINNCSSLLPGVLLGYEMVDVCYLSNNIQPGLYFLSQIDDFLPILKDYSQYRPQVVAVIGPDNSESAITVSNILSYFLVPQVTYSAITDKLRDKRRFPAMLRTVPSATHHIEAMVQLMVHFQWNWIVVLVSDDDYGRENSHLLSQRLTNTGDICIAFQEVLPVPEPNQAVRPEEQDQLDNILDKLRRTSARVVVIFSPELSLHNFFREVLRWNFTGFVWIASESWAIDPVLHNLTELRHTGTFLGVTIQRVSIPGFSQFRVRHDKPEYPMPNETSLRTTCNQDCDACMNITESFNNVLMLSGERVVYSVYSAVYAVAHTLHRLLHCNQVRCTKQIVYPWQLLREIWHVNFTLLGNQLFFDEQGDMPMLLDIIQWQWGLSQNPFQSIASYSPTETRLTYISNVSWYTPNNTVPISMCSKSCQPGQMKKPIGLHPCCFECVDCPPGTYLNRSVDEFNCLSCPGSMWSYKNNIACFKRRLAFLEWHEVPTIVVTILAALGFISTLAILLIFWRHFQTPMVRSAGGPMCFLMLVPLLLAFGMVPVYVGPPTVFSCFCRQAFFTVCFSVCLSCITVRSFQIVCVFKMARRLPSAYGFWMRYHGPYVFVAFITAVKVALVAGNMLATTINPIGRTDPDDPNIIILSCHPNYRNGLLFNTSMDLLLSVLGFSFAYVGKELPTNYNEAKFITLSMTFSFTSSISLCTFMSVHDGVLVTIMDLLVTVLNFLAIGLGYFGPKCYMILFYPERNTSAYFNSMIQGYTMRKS
T1 sequence (Q925D8 21-858): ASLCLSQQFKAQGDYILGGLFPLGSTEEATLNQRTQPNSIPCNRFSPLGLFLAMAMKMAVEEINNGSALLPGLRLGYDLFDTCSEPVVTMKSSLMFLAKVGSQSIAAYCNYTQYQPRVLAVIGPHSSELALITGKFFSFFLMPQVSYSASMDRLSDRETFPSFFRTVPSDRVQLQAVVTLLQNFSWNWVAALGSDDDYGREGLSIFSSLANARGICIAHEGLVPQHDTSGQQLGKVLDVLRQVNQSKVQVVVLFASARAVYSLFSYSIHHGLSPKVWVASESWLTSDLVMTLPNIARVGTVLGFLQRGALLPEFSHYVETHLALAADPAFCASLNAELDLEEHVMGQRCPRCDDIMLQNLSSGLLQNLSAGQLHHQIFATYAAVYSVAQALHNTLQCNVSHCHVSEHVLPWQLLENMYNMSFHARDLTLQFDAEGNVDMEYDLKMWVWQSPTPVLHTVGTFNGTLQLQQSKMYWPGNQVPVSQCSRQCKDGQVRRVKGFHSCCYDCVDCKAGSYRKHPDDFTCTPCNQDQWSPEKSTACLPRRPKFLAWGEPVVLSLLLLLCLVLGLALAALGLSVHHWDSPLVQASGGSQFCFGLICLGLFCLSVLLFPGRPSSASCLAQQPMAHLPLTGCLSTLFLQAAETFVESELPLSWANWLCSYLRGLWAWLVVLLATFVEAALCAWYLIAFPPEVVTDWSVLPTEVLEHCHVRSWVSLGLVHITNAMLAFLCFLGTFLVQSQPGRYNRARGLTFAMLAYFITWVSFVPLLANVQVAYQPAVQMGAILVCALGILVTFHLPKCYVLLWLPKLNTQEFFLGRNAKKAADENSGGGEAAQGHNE
The test can be described thus: Receptor pharmacology in whole nerve (vagal) electrophysiology: sweet taste receptor block. Format: in vivo, mice. The settings on record: gurmarin 7 µM. The source says:
(FIG. 21 and FIG. 22), showing neuropod cells use two distinct receptor mechanisms to transduce caloric and non-caloric sugar signals to the vagus nerve.

Test [2] concerns murine small intestinal organoids. Nature of the test: Glutamate release assay on murine small intestinal organoids. It is filed as cell-based, mouse. The following applies: sucrose 300 mM, α-MGP 150 mM, sucralose 15 mM; for glutamate concentration in the supernatant after stimulation: PBS control 2.632 ± 1.280; for glutamate release compared to PBS: p < 0.05. As for the experimental part:
Slc5a1+ Cck-GFP cells express transcripts for the vesicular glutamate transporters Slc17a6, Slc17a7, Slc17a8 and the excitatory neurotransmitter transporters Slc1a1, Slc1a2, and Slc1a3 (FIG. 4). […] A glutamate release assay was performed on murine small intestinal organoids to determine if glutamate release was stimuli specific (FIG. 24-left). α-MGP was used for a caloric stimulus with no sweet taste, because it is not metabolized once it enters the cell and thus allowed for isolation of cell entry. After nutrient stimulation, the glutamate concentration in the supernatant was 2.632 ± 1.280 ng/µL for PBS control, 13.460 ± 1.724 ng/µL for sucrose [300 mM], 18.183 ± 7.904 ng/µL for α-MGP [150 mM], and 6.053 ± 1.169 ng/µL for sucralose [15 mM].

For another test, the system named is duodenal Cck cells. Nature of the test: Vagal recording with intraluminal 532 nm laser silencing of duodenal Cck (neuropod) cells. It is filed as in vivo. The settings on record: Cck_Halo mice; sucrose 300 mM, α-mgp 150 mM, sucralose 15 mM. The protocol:
FIG. 9. Model: intraluminal 532 nm laser activates NpH3 chloride channels to silence duodenal Cck cells in CckCRE_NpH3 mice.
Using whole nerve electrophysiology of the cervical vagus nerve, it was confirmed that vagal activity increases in the presence of luminal sugars. Kaelberer et al., Science 361 (6408) (2018). The proximal duodenum was perfused with sugars, thus bypassing any gustatory or gastric activation. Sugars were tested based on the following properties: both caloric content and sweet taste (sucrose [300 mM], D-glucose [150 mM], fructose [150 mM], galactose [150 mM]), calorie-only (maltodextrin [8%], alpha-methylglucopyranoside (α-MGP) [150 mM]), or taste-only (sucralose [15 mM], acesulfame-K [15 mM], saccharin [15 mM]) (FIG. 1, FIG. 2, FIG. 3, FIG. 4). […] Intraluminal application of the 532 nm laser eliminated the vagal response to sucrose [300 mM], α-mgp [150 mM], and sucralose [15 mM] (n ≥ 5, p < 0.001) (FIG. 10 and FIG. 11; laser activation and wild-type controls). Thus, neuropod cells are required to sense both the calorie and taste properties of sugar and communicate these signals onto vagal neurons.
Cck neuropod cells in the duodenum express receptors for fatty acids (FIG. 69), analyzed by bulk sequencing Cck-positive and Cck-negative epithelial cells in the duodenum of CckGFP mice. Thus, CCK cells in the duodenum may signal the presence of fatty acids to the vagus nerve. To test this, the silencing optogenetic channel was expressed in Cck cells of mice. […] In the duodenum, there is overlap in cells expressing CCK and the vesicular glutamate transporter 1 (Vglut1), required for release of the neurotransmitter glutamate. To test whether glutamate is required as a signaling molecule for fat transduction to the vagus nerve, a cocktail of glutamate receptor inhibitors was perfused through the duodenum of wild type mice. Blockade of ionotropic and metabotropic glutamate receptors blocked vagal firing elicited by glutamate (FIG. 71). […] In an initial baseline test, mice freely explore an arena for 20 minutes, during which their position in the arena measured. […]

Another test relates to human duodenal organoids. Nature of the test: Glutamate release assay on human duodenal organoids. It is filed as cell-based. The settings on record: sucrose 300 mM, α-MGP 150 mM, sucralose 15 mM, n = 1 human.
The next test has as its system cervical vagus nerve. Nature of the test: Whole nerve electrophysiology of the cervical vagus during duodenal sugar perfusion. It is filed as in vivo, mice. The following applies: for vagal response (firing) to intraduodenal sugar vs baseline: wild-type mice, sucrose 300 mM, D-glucose 150 mM, fructose 150 mM, galactose 150 mM, maltodextrin 8%, α-MGP 150 mM, sucralose 15 mM, acesulfame K 15 mM, saccharin 15 mM. As for the experimental part:
FIG. 1. […] Model: sugars are perfused into the duodenal lumen while nerve activity is recorded from the cervical vagus of anesthetized wild-type mice.
The proximal duodenum was perfused with sugars, thus bypassing any gustatory or gastric activation. Sugars were tested based on the following properties: both caloric content and sweet taste (sucrose [300 mM], D-glucose [150 mM], […], galactose [150 mM]), calorie-only (maltodextrin [8%], alpha-methylglucopyranoside (α-MGP) [150 mM]), or taste-only (sucralose [15 mM], acesulfame-K [15 mM], saccharin [15 mM]) (FIG. 1, FIG. 2, FIG. 3, FIG. 4).

The nature of test [3]: Two-bottle choice between iso-sweet sucrose and sucralose. It is filed as in vivo, mice. As for the experimental part:
Domingos et al., Nature Neurosci. […] Behav. […] Bennink et al., J. Nucl. […] Perez et al., Pharmacol. Biochem. Behav. […] Thus, a goal of this study was to determine if synaptic gut-brain neurotransmission drives sugar preference.
CckCRE_NpH3 mice (n = 8) and littermate controls (n = 5) were implanted with the flexible fiberoptic and given the choice between iso-sweet sucrose [300 mM] and sucralose [15 mM] in a one-hour choice assay (FIG. 38 and FIG. 53). […] Whether the caloric neurotransmitter glutamate was contributing to the sucrose preference was tested.

Another test deals with P2 purinoceptor. Nature of the test: Vagal nerve recording with P2 purinoceptor antagonist. It is filed as in vivo, mice. The settings on record: PPADS 25 mg/kg. The source says:
Margolskee, J. Biol. Chem. 277(1): 1-4 (2002); Lu et al., Nature Com. 10(1): (2019). […] (FIG. 33, FIG. 36, and FIG. 37).

Entries after “also recorded” stand apart in the source; their conditions may differ.

On to gurmarin, for which the “effect on vagal firing elicited by sucralose” value in test [1] (sucralose 15 mM) is reported as “abolished; also recorded: inhibited”. Besides, the “effect on vagal response to sucrose” value in test [1] (sucrose 300 mM) is on record as “did not affect”. Besides, the “effect on vagal response to α-MGP” value in test [1] (α-MGP 150 mM) is recorded as “did not affect”.

In the case of `COC1OC(CO)C(O)C(O)C1O` (stereo not drawn) [α-MGP, alpha-methylglucopyranoside], in test [2], the “glutamate concentration in the supernatant after stimulation” value is listed as 18.183 ± 7.904 ng/µL. For the same compound, the results for the “glutamate release compared to PBS” value in test [2] and in test [2] (listed as aMGP) were “significantly higher” and “elicit significant release of glutamate”, respectively. In addition, the “vagal response with Cck cells silenced by 532 nm laser” value in the test with duodenal Cck cells is reported as “eliminated”. Also, the figures for the “glutamate release compared to PBS control” value with human duodenal organoids and in the test with human duodenal organoids (listed as aMGP) were “elicited glutamate release” and “release significant amounts of glutamate”, respectively. Besides, the “vagal response (firing) to intraduodenal sugar vs baseline” value (from here on “vagal response (firing) … vs baseline”) with cervical vagus nerve is given as “responds significantly”.

As for `OC[C@H]1O[C@@](CO)(O[C@H]2O[C@H](CO)[C@@H](O)[C@H](O)[C@H]2O)[C@@H](O)[C@@H]1O` [sucrose], the “glutamate concentration in the supernatant after stimulation” value in test [2] is 13.460 ± 1.724 ng/µL. Moreover, the “glutamate release compared to PBS” value in test [2] is reported as “significantly higher; also recorded: elicit significant release of glutamate”. The “vagal response with Cck cells silenced by 532 nm laser” value with duodenal Cck cells is on record as “eliminated”. Further, the preference for sucrose in test [3] (CckCRE_NpH3 mice, control 473 nm laser, one-hour choice) is recorded as 90.8% ± 3.74%; in test [3] (CckCRE_NpH3 mice, silencing 532 nm laser, one-hour choice vs sucralose 15 mM), 58.9% ± 3.92%; in test [3] (negative genotype littermate controls, 473 nm) it was 84.2% ± 6.30%; in test [3] (negative genotype littermate controls, 532 nm) it was 87.7% ± 2.21. Also, the “glutamate release compared to PBS control” value in the test on human duodenal organoids is given as “elicited glutamate release; also recorded: release significant amounts of glutamate”. Besides, the “vagal response (firing) … vs baseline” value in the test with cervical vagus nerve is “responds significantly”.

Turning to `O=C[C@H](O)[C@@H](O)[C@@H](O)[C@H](O)CO` [galactose], in the test with cervical vagus nerve, the “vagal response (firing) … vs baseline” value is “elicited significant vagal firing”.

In the case of `Cc1nc(N=Nc2ccc(S(=O)(=O)O)cc2S(=O)(=O)O)c(COP(=O)(O)O)c(C=O)c1O` [PPADS, pyridoxalphosphate-6-azophenyl-2’,4'-disulfonic acid], in the test on P2 purinoceptor (sucralose 15 mM), the “time to peak vagal firing rate to sucralose” value was “prolonged”. Besides, the “effect on vagal response to sucralose” value with P2 purinoceptor (sucralose 15 mM, wild-type mice) is recorded as “significantly attenuates; also recorded: abolished”. Also, the “effect on vagal response to sucrose” value in the test with P2 purinoceptor (sucrose 300 mM) was “not affected”. Also, the “effect on vagal response to α-MGP” value in the test with P2 purinoceptor (α-MGP 150 mM) is “not affected”.

For the compound `O=C(CO)[C@@H](O)[C@H](O)[C@H](O)CO` [fructose], in the test on cervical vagus nerve (fructose 600 mM and 1 M, n.s.), the “vagal response at high concentrations” value is “blunted vagal response”. For the same compound, the “vagal response (firing) … vs baseline” value in the test with cervical vagus nerve is “no significant”.

For the compound `O=C1NS(=O)(=O)c2ccccc21` [saccharin], the “vagal response (firing) … vs baseline” value in the test with cervical vagus nerve is “no significant”.

On to `CC1=CC(=O)[N-]S(=O)(=O)O1.[K+]` [acesulfame K], for which the “vagal response (firing) … vs baseline” value with cervical vagus nerve was “responds significantly”.

Source of the values: patent publication US20230077514A1, “METHODS FOR MODULATING CALORIE CONSUMPTION” (Duke University, priority 2020, published 2023).
